Results from patent publication US11389415B2, “Methods of regulating cannabinoid receptor activity-related disorders and diseases” (The United States of America as represented by the …, priority 2012, dated 2022).

Tests used:
PANC-1 cells = assay: Scratch wound-healing assay, PANC-1 cells; assay type: cell-based, human; settings: PANC-1, 1 μM
Description: Scratch assays. These assays were carried out essentially as described previously (Fiori et al., Endocrinology 150: 2551-2560, 2009). In brief, cells were seeded in 12-well nontreated polystyrene cell culture plates with flat bottom (Greiner Bio-One, Monroe, N.C.). Once the cells became confluent, a scratch wound was made with a pipette tip and pictured immediately (time 0). […] Cell migration was examined at 12, 24, 36, 48 hours and 12, 18, 24, 48 hours after scratch for the HepG2 and PANC-1 cells, respectively. Images of the same field were taken every 3 hours to determine the rate of cell migration. Images were captured on an Axiovert 200 inverted microscope (Carl Zeiss, Thornwood, N.Y.) mounted with an AxioCam HRc digital camera (Carl Zeiss) and the measurement of scratch area was performed with ImageJ 1.46s software (National Institutes of Health, Bethesda, Md.). Each study was performed in duplicate dishes and repeated at least twice.

HepG2 and PANC-1 cells = assay: Cell morphology and EGFR expression in HepG2 and PANC-1 cells; assay type: cell-based, human
Description: FIGS. 26A-26C show MNF interferes with inducible changes in cell morphology and expression of EGFR. […] White arrows show individual cells with filopodia. FIG. 26C, Cell lysates were prepared from similar studies and immunoblotted for EGFR. The membranes were reprobed for Hsp90, which served as a loading control.
(§1) Western blot analysis. For detection of intracellular signaling proteins, cells were lysed in radioimmunoprecipitation buffer containing EGTA and EDTA (Boston BioProducts, Ashland, Mass.). The lysis buffer contained a protease inhibitor cocktail (Sigma-Aldrich) and phosphatase inhibitor cocktail (Calbiochem, San Diego, Calif.). Equivalent amount of proteins (14 and 54 μg/well for PANC-1 and HepG2 cells, respectively) were separated on 4 to 12% precast gels (Invitrogen, Carlsbad, Calif.) using SDS-polyacrylamide gel electrophoresis under reducing conditions and then electrophoretically transferred onto polyvinylidene fluoride membrane (Invitrogen). Western blots were performed according to standard methods, which involved blocking in 5% non-fat milk and incubated with the antibody of interest, followed by incubation with a secondary antibody conjugated with the enzyme horseradish perodixase. The detection of immunoreactive bands was performed by chemiluminescence using the ECL Plus Western Blotting Detection System (GE Healthcare, Piscataway, N.J.). The quantification of bands was done by volume densitometry by using ImageJ software. The rabbit polyclonal antibodies against EGFR were obtained from Cell Signaling Technology, Inc. (Beverly, Mass.) and the monoclonal anti-Hsp90 was purchased from Santa Cruz Biotechnology, Inc. (Santa Cruz, Calif.).

HepG2 cells = assay: Cell cycle analysis by flow cytometry in HepG2 cells; assay type: cell-based, human; settings: HepG2, 1 μM
Description: Cell Cycle Analysis. Cell cycle distributions were performed by flow cytometry on propidium iodide-stained nuclei prepared by the NIM technique. DNA histograms of at least 10,000 cells acquired on a Becton-Dickinson FACScanto II (BD Biosciences, San Jose, Calif.) were deconvoluted using the Multicycle program (Phoenix Flow Systems) for estimates of the percentage of cells in the G0/1, S, and G2+M phases of the cell cycle. Debris and doublets were removed from the analysis by software algorithms.

ERK1/2 = ERK1/2 phosphorylation (GPR55 downstream signaling) in PANC-1 cells; assay type: cell-based, human
Description: as §1, with “The detection of immunoreactive bands was performed by chemiluminescence using the ECL Plus Western Blotting Detection System (GE Healthcare, Piscataway, N.J.).” left out, “The rabbit polyclonal antibodies against EGFR were obtained from Cell Signaling Technology, Inc. (Beverly, Mass.) and the monoclonal anti-Hsp90 was purchased from Santa Cruz Biotechnology, Inc. (Santa Cruz, Calif.).” left out
Effect of MNF on O-1602-mediated increase in cell signaling. Serum-starved cells were pretreated in the absence or presence of 1 μM MNF for 10 minutes followed by a 10 minute incubation with 0, 2.5 and 10 μM O-1602 or 10% FBS, after which the levels of total ERK2 and phosphorylated forms of ERK1/2 (pErk1/2, Thr202/Tyr204), were determined by Western blotting technique. […]

cyclin A and cyclin D1 = assay: Western blot of cell cycle regulator proteins (cyclin A, cyclin D1), C6 glioma; design: species or system mouse; settings: C6 glioma in vivo and in vitro
Excerpt: Western Blot Analysis. Frozen tumor tissues were lysed with radioimmune precipitation buffer containing EGTA and EDTA (Boston BioProducts, Ashland, Mass.) supplemented with a phosphatase inhibitor cocktail (EMB-Calbiochem), and protease inhibitor cocktail (Sigma-Aldrich), according to standard protocols. Equal amounts of protein from the clarified lysates were separated by SDS-polyacrylamide gel electrophoresis under reducing conditions (Invitrogen, Carlsbad, Calif.), and electrotransferred onto polyvinylidene difluoride membranes using the iBlot system (Invitrogen). Western blots were performed according to standard methods, which involved blocking the membrane in 5% non-fat milk, followed by sequential incubation method with the primary antibody of interest and secondary antibody conjugated with the enzyme horseradish peroxidase. The detection of immunoreactive bands was performed by chemiluminescence using the ECL Plus Western Blotting Detection System (GE Healthcare, Piscataway, N.J.). Quantitation of the protein bands was done by volume densitometry using ImageJ software (National Institutes of Health, Bethesda, Md.). […]

[1] = system: Sox4, Olig1, Galnt3, Cdkn3, Ccna2, Bub1b mRNA; assay: qRT-PCR of selected genes in C6 xenograft tumors; assay type: in vivo, mouse; settings: MNF-treated mice
Description: Total RNA extraction, cDNA synthesis and qRT-PCR analysis. Total RNA (including the DNase treatment step) was isolated from frozen tumor tissues using the RNeasy mini kit (Qiagen, Valencia, Calif.). RNA concentration and quality was measured using the NanoDrop spectrophotometer (NanoDrop Technologies, Wilmington, Del.). Subsequently, 2 μg total RNA was reverse-transcribed to cDNA using the qSCRIPT™ cDNA SuperMix (Quanta Biosciences, Gaithersburg, Md.). Quantitative real-time PCR (qRT-PCR) reactions were performed to validate the expression of 6 genes that were selected from the microarray analysis. The reactions were carried out with SYBR® Green PCR master mix on an ABI Prism 7300 sequence detection system (Applied Biosystems) using commercially available target probes for Sox4, Olig1, Galnt3, Cdkn3, Ccna2, and Bub1b (PrimeTime qPCR Assays and Primers, IDT DNA Technologies, Coralville, Iowa). The data was analyzed using the 2-ΔΔCt method with Gapdh and vehicle-treated tumors as internal controls. Controls consisting of reaction mixture without cDNA were negative in all runs.

COc1ccc(C[C@@H](C)NC[C@H](O)c2cc(O)cc(O)c2)c2ccccc12 [(R,R′)-MNF, (R,R′)-4′-methoxy-1-naphthylfenoterol]
cell motility, compound alone (PANC-1 cells): did not alter the constitutive rate of gap filling | effect on AM251-induced motility (PANC-1 cells; AM251 1 μM): produced significant decrease in AM251-induced motility of PANC-1 cells | effect on wound closure evoked by O-1602 (PANC-1 cells; O-1602 1 μM): inhibit the wound closure evoked by O-1602 in PANC-1 cells | effect on O-1602-induced EGFR levels (HepG2 and PANC-1 cells; 1 μM pretreatment): MNF blocked this effect | effect on change in morphology induced by AM251 and O-1602 (HepG2 and PANC-1 cells; 1 μM pretreatment 30 minutes, agonists 5 μM 16 hours): rendered the cells refractory to the change in morphology induced by AM251 and O-1602 | G2/M-phase cell population (HepG2 cells; after 6 h (control 13.8±1.1%)): 10.2±0.9% | S-phase cell population (HepG2 cells; after 6 h (control 34.7±0.3%)): 34.1±0.9% | G2/M-phase cell population (HepG2 cells; after 12 h): 14.6±1.8% | S-phase cell population (HepG2 cells; after 12 h): 13.7±1.2% | G2/M-phase cell population (HepG2 cells; after 24 h): 8.9±1.6% | S-phase cell population (HepG2 cells; after 24 h): 24.6±4.2% | number of sub-G1 events, maximum (HepG2 cells; by 12 hours): 21.5±0.7% | effect on O-1602-mediated ERK phosphorylation (ERK1/2; PANC-1, 1 μM pretreatment 10 minutes): displayed exquisite sensitivity to MNF with regard to O-1602-mediated ERK phosphorylation | effect on serum-induced ERK phosphorylation (ERK1/2; PANC-1, 1 μM pretreatment, 10% FBS): potently inhibited serum-induced ERK phosphorylation in both cell lines | expression of cell cycle regulator proteins (cyclin A and cyclin D1): marked reduction in the expression of cell cycle regulator proteins | mRNA expression by quantitative RT-PCR compared to control [1]: decreased the expression of Bub1b, Cdkn3 Ccna2, Olig1, Sox4, and Galnt3
